Assay results: patent US20160221991A1, “NOVEL TRIAZINE DERIVATIVE” (CARNA BIOSCIENCES, INC., priority 2013, published 2016)

System: anti-IgM antibody BCR stimulation-induced intracellular calcium influx in Ramos cells
Experiment: Inhibition test on the change of Ramos intracellular calcium ion
Type: cell-based
Conditions: Fluo-8NW fluorescence, anti-IgM 2.0 μg/mL, FIG. 1
Procedure: The intracellular BTK inhibition by the compounds of the present invention was verified by measuring the effects of the compounds of the present invention on “anti-IgM antibody BCR stimulation-induced intracellular calcium influx”. One day before measurement, the Ramos cells were cultured as being suspended again at a cell density of 1.0×10^6 cells/mL in a fresh growth medium (growth medium as used in Test Example 2), and the cells were recovered next day by centrifugation and washed with RPMI-1640 medium supplemented with 5% penicillin-streptomycin (Nacalai Tesque, Inc.) (Medium 1). […] The Ramos intracellular calcium ion concentration was measured as a fluorescent intensity of the calcium indicator Fluo-8NW using a microplate reader (SynergyH1) (Ex/Em=490/525 nm) After measuring the baseline for 15 seconds, 50 μL of the anti-IgM antibody (Invitrogen, #H15100) diluted with Medium 2 to 10.4 μg/mL was added to each well described above (final concentration of 2.0 μg/mL) to effect BCR stimulation, and then the measurement was continued further for 150 seconds.

For Cn1cc(Nc2nc(N)nc(-c3ccnc(-n4ccc5cc(C6CC6)cc(F)c5c4=O)c3CO)n2)cc1C#N [Example 3, 4-({4-Amino-6-[2-(6-cyclopropyl-8-fluoro-1-oxoisoquinolin-2(1H)-yl)-3-(hydroxymethyl)pyridin-4-yl]-1,3,5-triazin-2-yl}amino)-1-methyl-1H-pyrrole-2-carbonitrile], the “inhibition of anti-IgM antibody BCR stimulation-induced intracellular calcium ion variation” value was “in a concentration-dependent manner from a low concentration”.
